The values below come from patent publication US20070238756A1, “COMBINATIONS OF DIPEPTIDYL PEPTIDASE IV INHIBITORS AND OTHER ANTIDIABETIC AGENTS FOR THE TREATMENT OF DIABETES MELLITUS” (priority 2000, published 2007).

The subject of experiment [1] is male ZDF fa/fa rats. Briefly: % HbA1C 7 day change in ZDF rats. The format is in vivo, rat. Conditions: oral gavage BID for 7 days, Compound (I) 5 mg/kg, Compound (II) 100 mg/kg, combination of both doses, n=6, control 1.63 ± 1.12. The protocol:
Age and weight matched male ZDF fa/fa rats (Genetic Models, Inc., Indianapolis, Ind.) were housed individually at 72° F. and 50% relative humidity with a 12 h light/dark cycle and fed PMI 5008 Formulab Diet (PMI Nutrition International, Saint Louis, Mo.).
(§1) Rats were anesthetized with isofluorane for cardiac blood collection 30 minutes after administration of the glucose solution. Serum chemistry measurements were obtained using an automated chemistry analyzer (ILab600, Instrument Laboratory, Lexington, Mass.).
Results from each group (n=6) were averaged and compared to vehicle treated rats to determine significance and are shown in Table I.

For experiment [2], the system named is male ZDF fa/fa rats. Nature of the experiment: Glucose tolerance test, plasma glucose 30 min after intraperitoneal glucose, in ZDF rats. Conditions: oral gavage BID for 7 days, i.p. glucose 30 min after last dose, blood 30 min after glucose, Compound (I) 5 mg/kg, Compound (II) 100 mg/kg, combination of both doses, n=6, control 695 ± 24. The format is in vivo, rat. How it is done: For glucose tolerance measurements, rats were treated with test compound for 7 days and given an intraperitoneal injection of a glucose solution in saline 30 minutes after the last dose of test compound.
as §1

Another experiment concerns the target T1, DPP-IV (Rattus norvegicus, UniProt P14740).
T1 construct: from tissue; host or cells: plasma of treated male ZDF fa/fa rats
Nature of the experiment: Plasma DPP-IV activity in treated ZDF rats (Gly-Pro-AMC fluorogenic substrate). It counts as in vivo. Conditions: male ZDF fa/fa rats, oral gavage BID for 7 days; Compound (I) 5 mg/kg, Compound (II) 100 mg/kg, combination of both doses; n=6; control 5544 ± 485. The protocol:
DPP-IV activity was measured using the fluorogenic substrate Gly-Pro-AMC ([…]) according to the manufacturer's specification (Enzyme System Products, Livermore Calif.). The substrate was mixed with 50 mM Tris, pH 7.8, in plasma (20% final v/v) and the samples were incubated for 5-20 min at 30 °C. DPP-IV activity was determined by measuring fluorescence using a cytofluor spectrofluoremeter with the filters set at 360 nm excitation and 460 nm emission.

T1 sequence (P14740 37-767 limits assumed): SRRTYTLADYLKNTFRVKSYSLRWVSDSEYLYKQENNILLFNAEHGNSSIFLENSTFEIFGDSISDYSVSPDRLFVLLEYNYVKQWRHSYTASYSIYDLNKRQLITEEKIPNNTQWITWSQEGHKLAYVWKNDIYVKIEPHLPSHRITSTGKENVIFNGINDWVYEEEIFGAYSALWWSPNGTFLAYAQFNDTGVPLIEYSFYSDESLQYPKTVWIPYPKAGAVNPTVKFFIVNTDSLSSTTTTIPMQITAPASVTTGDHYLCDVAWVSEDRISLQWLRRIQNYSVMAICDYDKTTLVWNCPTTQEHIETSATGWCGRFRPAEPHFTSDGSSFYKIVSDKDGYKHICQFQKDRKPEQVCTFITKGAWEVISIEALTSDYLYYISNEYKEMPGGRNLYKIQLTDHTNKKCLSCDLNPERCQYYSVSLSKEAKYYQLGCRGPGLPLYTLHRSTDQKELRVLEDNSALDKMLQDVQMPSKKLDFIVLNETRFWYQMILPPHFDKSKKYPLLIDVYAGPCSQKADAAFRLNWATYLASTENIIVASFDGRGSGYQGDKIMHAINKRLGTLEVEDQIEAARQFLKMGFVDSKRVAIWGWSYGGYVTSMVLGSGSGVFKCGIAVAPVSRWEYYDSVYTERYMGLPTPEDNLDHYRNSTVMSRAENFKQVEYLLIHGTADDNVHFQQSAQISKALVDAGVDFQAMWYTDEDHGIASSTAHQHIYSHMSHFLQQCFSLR

Regarding `CC[C@H](C)[C@H](N)C(=O)N1CCSC1` [Compound (II), isoleucine thiazolidide], the “% HbA1C (7 day change)” value in the experiment on male ZDF fa/fa rats [1] was 1.81 ± 1.24%. The “Plasma Glucose (30 min GTT)” value with male ZDF fa/fa rats [2] amounted to 684 ± 60.
Turning to `CN(CCOc1ccc(CC2SC(=O)NC2=O)cc1)c1ccccn1` (centres unmarked) [Compound (I), 5-[4-[2-(N-methyl-N-(2-pyridyl)amino)ethoxy]benzyl]thiazolidine-2,4-dione], the “Plasma DPP-IV activity” value on DPP-IV turned out to be 4104 ± 399. Besides, the “% HbA1C (7 day change)” value with male ZDF fa/fa rats [1] was 0.79 ± 0.54 %. In addition, the “Plasma Glucose (30 min GTT)” value in the experiment with male ZDF fa/fa rats [2] came out at 665 ± 40.
